How the values were obtained:
[1] = tested on: SASKR (russian thistle); assay: Pre-plant incorporated (PPI) herbicidal activity, cool season; type: in vivo, Salsola kali; settings: for Percent inhibition SASKR: weed, PPI application; for PPI activity GR80, SASKR: pre-plant incorporated, lowest tested rate with 80% or greater inhibition, about 14 days
Method: (§1) In another set of tests, the pre-plant incorporated (PPI) activity of compounds of this invention was evaluated on the same species as for the pre-emergence tests described above. In the PPI tests the following procedure, designed to simulate PPI application, was used.
(§2) A pre-prepared topsoil mixture (described above) was placed in a pot and compacted to a depth of 1.0 to 1.25 cm from the top of the pot. Seeds of each of several monocotyledonous and dicotyledonous annual plant species were placed on top of the soil. A sufficient quantity of soil to cover the seeds and level fill the pot was weighed into an open container. A known amount of the test compound was dissolved or suspended in an organic solvent and applied by spraying to this cover soil. The cover soil was thoroughly mixed to distribute the test compound throughout the cover soil, and was then applied as a cover layer over the seeds. Untreated soil was used as a cover layer for control pots. After treatment the plants were placed in a greenhouse where they received 0.64 cm of overhead irrigation. All subsequent watering consisted of a light overhead mist and/or subirrigation as needed for germination and growth. Tables 9 and 10 below relate to warm season plant species which were placed after pre-emergence treatment in a greenhouse with a 30/21° C. day/night temperature regime. Tables 11 and 12 below relates to cool season plant species placed after pre-emergence treatment in a greenhouse or growth chamber with an 18/13° C. day/night temperature regime. Only the compounds of Examples 1, 6, 8, 11, 13 and 15-20 were included in PPI tests.
(§3) Approximately 14 days after planting and treating, the plants were observed and herbicidal efficacy recorded as percent inhibition by comparison with untreated plants.

[2] = tested on: SETVI (green foxtail); assay: Pre-emergence herbicidal activity, cool season; type: in vivo, Setaria viridis; settings: GR80 = lowest tested rate (300, 100, 30, 10 g/ha) with 80% or greater inhibition; approx. 14 days after treating; 18/13° C.
How it was run: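 GR80 values derive from percent inhibition relative to untreated plants, read roughly 14 days after sowing and pre-emergence soil-surface treatment (compound in 50:50 acetone/water; rates typically 10, 30, 100, 300 g/ha). Warm-season weeds grew at 30/21° C day/night, cool-season ones at 18/13° C; an asterisk marks activity without reaching 80% at the highest rate.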

[3] = tested on: XANST (cocklebur); assay: Pre-plant incorporated (PPI) herbicidal activity, warm season; type: in vivo, Xanthium strumarium; settings: PPI application
Method: as §1, §2, §3

[4] = tested on: ECHCG (barnyardgrass); assay: as above; type: in vivo, Echinochloa crus-galli; settings: for PPI activity GR80, ECHCG: pre-plant incorporated, lowest tested rate with 80% or greater inhibition, about 14 days
Method: as §1, §2, §3

[5] = tested on: BRAPP (broadleaf signalgrass); assay: Pre-emergence herbicidal activity, warm season; type: in vivo, Brachiaria platyphylla; settings: for Pre-emergence activity (GR80) BRAPP: GR80 = lowest tested rate (300, 100, 30, 10 g/ha) with 80% or greater inhibition, approx. 14 days after treating, 30/21° C.
How it was run: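 Seeds sown in sterilised fertilised topsoil received surface-applied compound in 50:50 acetone/water, typically at 300, 100, 30 and 10 g/ha, then greenhouse-grown at 30/21° C (warm-season species) or 18/13° C (cool-season species). Percent inhibition versus untreated plants was scored at about 14 days, giving GR80; an asterisk marks activity short of 80% at the top rate.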

[6] = tested on: AVEFA (wild oat); assay: Post-emergence herbicidal activity, cool season; type: in vivo, Avena fatua; settings: abraded plants sprayed at 300, 100, 30 and 10 g/ha; about 14 days after treatment
Method: In another set of tests, the post-emergence activity of compounds of this invention was evaluated on the cool season species listed above. The following procedure was used.
A pre-prepared topsoil mixture (described above) was placed in a pot and compacted to a depth of 1.0 to 1.25 cm from the top of the pot. Seeds of each of several monocotyledonous and dicotyledonous annual plant species were placed on top of the soil. The seeds were covered with a mixture of 50% topsoil and 50% Rediearth™ in sufficient quantity to level-fill the pots. The pots were then placed on a greenhouse bench and subirrigated as needed.
When plants growing from the seeds had emerged and reached a suitable growth stage for post-emergence treatment, typically 9 to 14 days after planting, above-ground parts of the plants were subjected to a pre-treatment involving abrasion to create greater opportunity for foliar uptake of subsequently applied compounds. Abrasion was performed using garnet 200w particles applied with a Sears Craftsman hand-held sandblaster operated at approximately 850 kPa (50 psig) pressure.
A known amount of each test compound dissolved or suspended in an appropriate organic solvent was diluted with a 50:50 mix of acetone and water and applied to the plants by spraying with a standard spray nozzle in a spray volume of […] at a spray pressure of 511 kPa (30 psig). Only the compounds of Examples 1, 8-15 and 17-22 were included in post-emergence tests. Application rates for these compounds were 300, 100, 30 and 10 g/ha. Control plants were abraded but not sprayed.
After treatment the plants were placed in a greenhouse with an 18/13° C. day/night temperature regime and were subsequently watered as needed for growth. Approximately 14 days after treatment, the plants were observed and herbicidal efficacy recorded as percent inhibition by comparison with control plants. GR80 values were assigned for each compound as described above for the pre-emergence tests.

[7] = tested on: VERPE (creeping speedwell); assay: Pre-plant incorporated (PPI) herbicidal activity, cool season; type: in vivo, Veronica persicaria; settings: for PPI activity GR80, VERPE: pre-plant incorporated, lowest tested rate with 80% or greater inhibition, about 14 days; for Percent inhibition VERPE: weed, PPI application
Method: as §1, §2, §3

SMILES | Percent inhibition SASKR ([1]; 30 g/ha) [%] | Percent inhibition SASKR ([1]; 100 g/ha) [%] | Percent inhibition SASKR ([1]; 300 g/ha) [%] | Percent inhibition SASKR ([1]; 900 g/ha) [%] | Pre-emergence activity (GR80) SETVI [2] [g/ha] | Percent inhibition XANST ([3]; 30 g/ha) [%] | Percent inhibition XANST ([3]; 100 g/ha) [%] | Percent inhibition XANST ([3]; 300 g/ha) [%] | Percent inhibition XANST ([3]; 900 g/ha) [%] | Percent inhibition ECHCG ([4]; PPI application, 30 g/ha) [%] | Percent inhibition ECHCG ([4]; PPI application, 100 g/ha) [%] | Percent inhibition ECHCG ([4]; PPI application, 300 g/ha) [%] | Percent inhibition ECHCG ([4]; PPI application, 900 g/ha) [%] | Pre-emergence activity (GR80) BRAPP [5] | Post-emergence activity GR80, AVEFA [6] | PPI activity GR80, SASKR [1] [g/ha] | PPI activity GR80, VERPE [7] | PPI activity GR80, ECHCG [4] | further results
CCN(CC)C(=O)n1cnc(S(=O)(=O)C(F)(F)F)n1 [Example 2] | 50 | 80 | 85 | 100 | 30 | 0 | 0 | 0 | 0 | 40 | 80 | 100 | 100 | 300 g/ha |  |  |  |  | 
CCN(CC)C(=O)n1cnc(S(=O)(=O)C(F)(F)SC)n1 [Example 9] | 50 | 100 | 95 | 100 | 100 | 0 | 0 | 30 | 60 | 90 | 100 | 100 | 100 | 300 g/ha | [empty] |  |  |  | 
CCN(CC)C(=O)n1cnc(S(=O)(=O)C(F)(F)SCC(=O)OC)n1 [Example 11] | 20 |  | 30 | 65 | 300 | 0 | 0 | 0 | 0 | 0 | 40 | 70 | 99 |  | [empty] | 100 | [empty] | * (activity observed, at least at highest rate, but <80% inhibition) | Percent inhibition SASKR ([1]; 10 g/ha): 0%; Percent inhibition VERPE ([7]; 10 g/ha): 90%; Percent inhibition VERPE ([7]; 30 g/ha): 90%; Percent inhibition VERPE ([7]; 100 g/ha): 100%; Percent inhibition VERPE ([7]; 300 g/ha): 100%; Percent inhibition VERPE ([7]; 900 g/ha): 100%; Percent inhibition XANST ([3]; 10 g/ha): 0%; Percent inhibition ECHCG ([4]; PPI application, 10 g/ha): 0%
CCN(CC)C(=O)n1cnc(S(=O)(=O)C(F)(F)C(F)F)n1 [Example 16] | 90 | 80 | 80 | 100 | 300 | 0 | 0 | 0 | 95 | 100 | 100 | 100 | 100 | 300 g/ha |  | 30 | 100 g/ha | 30 g/ha | Percent inhibition SASKR ([1]; 10 g/ha): 65%; Percent inhibition VERPE ([7]; 10 g/ha): 100%; Percent inhibition VERPE ([7]; 30 g/ha): 95%; Percent inhibition VERPE ([7]; 100 g/ha): 100%; Percent inhibition VERPE ([7]; 300 g/ha): 100%; Percent inhibition VERPE ([7]; 900 g/ha): 100%; Percent inhibition XANST ([3]; 10 g/ha): 0%; Percent inhibition ECHCG ([4]; PPI application, 10 g/ha): 90%
CCN(CC)C(=O)n1cnc(S(=O)(=O)C(F)(F)Cl)n1 [Example 3] | 80 | 80 | 100 | 100 | 100 | 0 | 0 | 0 | 60 | 100 | 99 | 100 | 100 | 100 g/ha |  |  |  |  | 
CCN(CC)C(=O)n1cnc(S(=O)(=O)C(F)(F)C(F)(F)SC)n1 [Example 14] |  |  |  |  | 30 |  |  |  |  |  |  |  |  | 300 g/ha | [empty] |  |  |  | 
CCN(CC)C(=O)n1cnc(S(=O)(=O)C(F)(F)C(F)(F)Br)n1 [Example 4] | 75 | 90 | 99 | 100 | 30 | 0 | 0 | 0 | 40 | 20 | 100 | 100 | 100 | 300 g/ha |  |  |  |  | 
CCN(CC)C(=O)n1cnc(S(=O)(=O)C(F)(F)C(=O)c2ccccc2)n1 [Example 6] |  |  |  |  | 300 |  |  |  |  |  |  |  |  | * (activity observed, at least at highest rate, but <80% inhibition) |  | 300 | 100 g/ha | 100 g/ha | 
CCN(CC)C(=O)n1cnc(S(=O)(=O)C(F)F)n1 [Example 15, 1-(N,N-diethylcarbamoyl)-3-(difluoromethylsulfonyl)-1,2,4-triazole] |  |  |  |  |  |  |  |  |  |  |  |  |  | 300 g/ha | [empty] | 100 | 300 g/ha | 100 g/ha | inhibition at 10 g/ha ([3]; Xanthium strumarium, 10 g/ha, read-out: Percent inhibition XANST): 0%; inhibition at 30 g/ha ([3]; Xanthium strumarium, 30 g/ha, read-out: Percent inhibition XANST): 0%; inhibition at 100 g/ha ([3]; Xanthium strumarium, 100 g/ha, read-out: Percent inhibition XANST): 0%; inhibition at 300 g/ha ([3]; Xanthium strumarium, 300 g/ha, read-out: Percent inhibition XANST): 0%; inhibition at 10 g/ha ([4]; Echinochloa crus-galli, PPI application, 10 g/ha, read-out: Percent inhibition ECHCG): 10%; inhibition at 30 g/ha ([4]; Echinochloa crus-galli, PPI application, 30 g/ha, read-out: Percent inhibition ECHCG): 50%; inhibition at 100 g/ha ([4]; Echinochloa crus-galli, PPI application, 100 g/ha, read-out: Percent inhibition ECHCG): 90%; inhibition at 300 g/ha ([4]; Echinochloa crus-galli, PPI application, 300 g/ha, read-out: Percent inhibition ECHCG): 100%; inhibition at 900 g/ha ([4]; Echinochloa crus-galli, PPI application, 900 g/ha, read-out: Percent inhibition ECHCG): 90%; inhibition at 10 g/ha ([5]; Urochloa platyphylla, pre-emergence application, 10 g/ha, read-out: Percent inhibition, weed BRAPP): 0%; inhibition at 30 g/ha ([5]; Urochloa platyphylla, pre-emergence application, 30 g/ha, read-out: Percent inhibition, weed BRAPP): 0%; inhibition at 100 g/ha ([5]; Urochloa platyphylla, pre-emergence application, 100 g/ha, read-out: Percent inhibition, weed BRAPP): 40%; inhibition at 300 g/ha ([5]; Urochloa platyphylla, pre-emergence application, 300 g/ha, read-out: Percent inhibition, weed BRAPP): 50%; inhibition at 900 g/ha ([5]; Urochloa platyphylla, pre-emergence application, 900 g/ha, read-out: Percent inhibition, weed BRAPP): 85%
